Results reported in PubChem BioAssay (NCI).
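Results reflect a 48-hour exposure of cells in 96-well plates to compound at five concentrations. At the TGI there is no net growth.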

Assays:
Assay in all cases: DTP human tumour cell line panel, 48 h
A549 NSCLC = tested on: A549 NSCLC
HCT-116 colon = tested on: HCT-116 colon
KM12 colon = tested on: KM12 colon
MALME-3M melanoma = tested on: MALME-3M melanoma
MDA-MB-231 breast = tested on: MDA-MB-231 breast
SK-MEL-2 melanoma = tested on: SK-MEL-2 melanoma
SK-MEL-5 melanoma = tested on: SK-MEL-5 melanoma
SN12C renal = tested on: SN12C renal
SR leukemia = tested on: SR leukemia
SW-620 colon = tested on: SW-620 colon
TK-10 renal = tested on: TK-10 renal

Compound | TGI (A549 NSCLC) | TGI (HCT-116 colon) | TGI (KM12 colon) | TGI (MALME-3M melanoma) | TGI (MDA-MB-231 breast) | TGI (SK-MEL-2 melanoma) | TGI (SK-MEL-5 melanoma) | TGI (SN12C renal) | TGI (SR leukemia) | TGI (SW-620 colon) | TGI (TK-10 renal)
CCOC(=O)C1(Cc2ccccc2)Cc2ccccc2C1=O (configuration not stated) | > 100 µM | > 100 µM | > 100 µM | 52.3 µM | > 100 µM | 30.7 µM | 28.8 µM | > 100 µM | 78.2 µM | > 100 µM | > 100 µM
Cc1cccc(NC(=S)N/N=C(/c2ccccc2)c2ccccn2)c1 | 14.3 µM | 13 µM | 13.8 µM | 12.6 µM | 6.73 µM | 14.5 µM | 7.18 µM | 12.4 µM | 7.13 µM | 20.4 µM | 16 µM
CCN(CC)c1nc(N(C)C)c2cc(OC)ccc2n1 | > 100 µM | > 100 µM | > 100 µM | 62 µM | > 100 µM | > 100 µM | 34.2 µM | 89.3 µM | 76.9 µM | > 100 µM | > 100 µM
Cc1n[nH]c(=O)n1N1C(=O)c2ccccc2C1=O | > 100 µM | > 100 µM | > 100 µM | > 100 µM | > 100 µM | > 100 µM | > 100 µM | > 100 µM | > 100 µM | > 100 µM | > 100 µM
N=c1oc2c(Cl)cc(Cl)cc2cc1C(=O)Nc1ccccn1 | > 100 µM | > 100 µM | > 100 µM | > 100 µM | > 100 µM | > 100 µM | > 100 µM | > 100 µM | 65.9 µM | > 100 µM | > 100 µM
C=C(C(=O)O)[C@@H]1C[C@@H]2O[C@H]1CC(C)=CCC/C(C)=C/CC[C@@]2(C)O | > 100 µM | > 100 µM | > 100 µM | > 100 µM | > 100 µM | > 100 µM | > 100 µM | > 100 µM | > 100 µM | > 100 µM | > 100 µM
CC1(C)O[C@@H]2[C@@H]3OC(=O)C[C@@H]3[C@@H](COCc3ccccc3)[C@@H]2O1 | > 100 µM | > 100 µM | > 100 µM | > 100 µM | > 100 µM | > 100 µM | > 100 µM | > 100 µM | > 100 µM | > 100 µM | > 100 µM
